Like-named read-outs stand apart in the source and are kept apart here.
Columns and labels:
[1] = target: T1, CDK9/CycT1 (Homo sapiens, UniProt P50750); assay: CDK9/CycT1 high ATP kinase assay (TR-FRET, 2 mM ATP); format: biochemical
T1 construct: Recombinant full-length His-tagged human CDK9 and CycT1; purchased Life Technologies PV4131; host or cells: insect cells
Summary of the method: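 Full-length His-tagged human CDK9/CycT1 (insect cell, ~0.5 μg/mL) preincubated 15 min at 22 °C with compound in Tris pH 8.0, MgCl2, DTT buffer before reaction with biotinylated peptide substrate at high ATP (2 mM).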

[2] = target: T2, CDK12 (nuclear staining in CAL-120 cells) (Homo sapiens, UniProt Q9NYV4); assay: CDK12 nuclear protein level: immunofluorescence/high content analysis (CAL-120); format: cell-based; settings: for DC50: CAL-120 cells, 24 h, immunofluorescence, 50% reduction of nuclear CDK12 staining intensity, median, read-out: CDK12 degradation IF, DC50- [mol/l] (median); for (IC50 CDK12 high ATP) to (Degradation DC50 CDK12) ratio: ratio of IC50 CDK12 high ATP kinase assay to DC50 CDK12 degradation (IF, CAL-120)
T2 construct: endogenous in cells; host or cells: CAL-120 human breast cancer cells (DSMZ ACC 459)
Summary of the method: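 CAL-120 cells were treated with compound for 24 h at 37 °C, fixed with PFA and immunostained for CDK12. Nuclear CDK12 intensity was quantified by automated image analysis and normalized to DMSO and control. DC50 is the concentration giving 50% reduction of nuclear staining.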

[3] = target: T3, CDK2/CycE (Homo sapiens, UniProt P24941); assay: CDK2/CycE kinase assay (TR-FRET, 2 mM ATP); format: biochemical; settings: 2 mM ATP (high ATP); median; read-out: CDK2/CyclinE, 2 mM ATP (high ATP), IC50 (median)
T3 construct: purchased ProQinase GmbH (Freiburg, Germany); host or cells: insect cells (Sf9)
Summary of the method: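 GST-tagged human CDK2 and CycE from Sf9 cells, about 10 ng/ml, pre-incubated 15 min at 22 °C with compound in Tris/HCl pH 8.0 buffer. Reaction with 2 mM ATP and 0.75 µM biotinylated peptide for 25 min at 22 °C. Phospho-RB antibody TR-FRET (665/620 nm ratio) read after 1 h; data normalised to no-inhibitor and no-enzyme controls.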

[4] = 2 mM ATP (high ATP), median, read-out: CDK9/CyclinT1, 2 mM ATP (high ATP), IC50 (median)

T1 sequence (P50750 whole entry): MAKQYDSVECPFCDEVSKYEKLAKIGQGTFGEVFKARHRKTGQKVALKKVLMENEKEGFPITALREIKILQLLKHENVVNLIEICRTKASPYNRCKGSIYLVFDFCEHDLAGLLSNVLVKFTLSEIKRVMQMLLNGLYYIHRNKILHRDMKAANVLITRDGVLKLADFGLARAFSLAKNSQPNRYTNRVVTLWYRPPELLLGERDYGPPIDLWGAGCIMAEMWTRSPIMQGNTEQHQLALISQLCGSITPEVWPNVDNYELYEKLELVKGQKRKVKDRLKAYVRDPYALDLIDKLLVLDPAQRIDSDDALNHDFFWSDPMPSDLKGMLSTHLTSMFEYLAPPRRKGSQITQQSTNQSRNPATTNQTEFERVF
T1 sequence (O60563 whole entry partner): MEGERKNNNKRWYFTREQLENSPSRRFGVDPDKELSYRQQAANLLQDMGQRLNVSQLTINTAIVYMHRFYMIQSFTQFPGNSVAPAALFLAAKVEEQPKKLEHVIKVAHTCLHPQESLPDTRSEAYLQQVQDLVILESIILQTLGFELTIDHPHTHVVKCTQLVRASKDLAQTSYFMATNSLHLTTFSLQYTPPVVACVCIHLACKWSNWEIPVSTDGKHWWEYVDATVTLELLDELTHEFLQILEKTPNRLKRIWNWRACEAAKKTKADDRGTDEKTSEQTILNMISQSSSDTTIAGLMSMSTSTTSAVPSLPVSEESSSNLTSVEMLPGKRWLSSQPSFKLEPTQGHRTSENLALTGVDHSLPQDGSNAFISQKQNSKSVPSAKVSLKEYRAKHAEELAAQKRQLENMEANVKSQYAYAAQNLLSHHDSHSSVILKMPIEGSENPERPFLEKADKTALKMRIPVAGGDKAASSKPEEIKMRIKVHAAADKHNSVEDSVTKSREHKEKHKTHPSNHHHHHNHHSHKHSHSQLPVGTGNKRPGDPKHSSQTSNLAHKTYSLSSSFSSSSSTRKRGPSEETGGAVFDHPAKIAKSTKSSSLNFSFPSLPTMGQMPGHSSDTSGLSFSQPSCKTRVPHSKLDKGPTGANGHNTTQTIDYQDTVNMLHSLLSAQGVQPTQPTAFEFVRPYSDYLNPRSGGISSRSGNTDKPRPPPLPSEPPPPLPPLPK
T2 sequence (Q9NYV4 whole entry): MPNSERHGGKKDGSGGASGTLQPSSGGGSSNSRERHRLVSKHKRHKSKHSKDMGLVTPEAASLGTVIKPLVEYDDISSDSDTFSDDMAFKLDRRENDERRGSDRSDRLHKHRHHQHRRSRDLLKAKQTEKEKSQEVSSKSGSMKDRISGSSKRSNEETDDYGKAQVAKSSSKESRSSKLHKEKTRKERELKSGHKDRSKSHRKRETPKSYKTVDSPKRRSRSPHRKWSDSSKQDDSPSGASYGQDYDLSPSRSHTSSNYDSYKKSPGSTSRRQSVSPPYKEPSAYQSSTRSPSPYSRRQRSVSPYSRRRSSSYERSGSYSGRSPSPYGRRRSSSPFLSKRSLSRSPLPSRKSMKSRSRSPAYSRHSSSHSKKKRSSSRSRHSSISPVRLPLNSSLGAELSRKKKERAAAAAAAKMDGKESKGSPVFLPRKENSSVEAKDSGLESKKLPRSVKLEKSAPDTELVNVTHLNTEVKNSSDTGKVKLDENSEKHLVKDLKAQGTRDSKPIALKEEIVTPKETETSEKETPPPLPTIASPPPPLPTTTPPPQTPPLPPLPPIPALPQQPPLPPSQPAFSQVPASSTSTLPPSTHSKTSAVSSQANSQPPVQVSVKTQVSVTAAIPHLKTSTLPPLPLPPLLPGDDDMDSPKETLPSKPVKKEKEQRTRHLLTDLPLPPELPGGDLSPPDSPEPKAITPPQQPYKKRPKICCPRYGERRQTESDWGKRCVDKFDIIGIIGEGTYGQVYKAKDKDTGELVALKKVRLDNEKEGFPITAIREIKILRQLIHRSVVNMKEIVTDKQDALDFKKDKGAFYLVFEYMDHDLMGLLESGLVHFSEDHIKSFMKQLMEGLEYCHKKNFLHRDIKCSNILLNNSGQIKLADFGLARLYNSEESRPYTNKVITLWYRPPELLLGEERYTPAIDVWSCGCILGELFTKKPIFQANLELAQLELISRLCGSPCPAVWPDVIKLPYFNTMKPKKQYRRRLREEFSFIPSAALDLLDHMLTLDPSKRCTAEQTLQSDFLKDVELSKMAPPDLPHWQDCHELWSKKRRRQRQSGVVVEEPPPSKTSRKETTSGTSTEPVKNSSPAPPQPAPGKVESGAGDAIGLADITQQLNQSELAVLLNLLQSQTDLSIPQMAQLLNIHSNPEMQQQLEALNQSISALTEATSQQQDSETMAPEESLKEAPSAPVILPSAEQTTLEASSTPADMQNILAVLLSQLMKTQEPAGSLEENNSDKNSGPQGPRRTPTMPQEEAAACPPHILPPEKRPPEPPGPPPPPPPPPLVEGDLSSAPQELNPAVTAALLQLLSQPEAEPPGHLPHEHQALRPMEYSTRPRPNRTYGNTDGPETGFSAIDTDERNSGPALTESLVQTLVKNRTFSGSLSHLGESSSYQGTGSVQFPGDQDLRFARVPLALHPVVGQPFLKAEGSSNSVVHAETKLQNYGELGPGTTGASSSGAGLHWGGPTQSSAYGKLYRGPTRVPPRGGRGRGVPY
T2 sequence (O75909 whole entry partner): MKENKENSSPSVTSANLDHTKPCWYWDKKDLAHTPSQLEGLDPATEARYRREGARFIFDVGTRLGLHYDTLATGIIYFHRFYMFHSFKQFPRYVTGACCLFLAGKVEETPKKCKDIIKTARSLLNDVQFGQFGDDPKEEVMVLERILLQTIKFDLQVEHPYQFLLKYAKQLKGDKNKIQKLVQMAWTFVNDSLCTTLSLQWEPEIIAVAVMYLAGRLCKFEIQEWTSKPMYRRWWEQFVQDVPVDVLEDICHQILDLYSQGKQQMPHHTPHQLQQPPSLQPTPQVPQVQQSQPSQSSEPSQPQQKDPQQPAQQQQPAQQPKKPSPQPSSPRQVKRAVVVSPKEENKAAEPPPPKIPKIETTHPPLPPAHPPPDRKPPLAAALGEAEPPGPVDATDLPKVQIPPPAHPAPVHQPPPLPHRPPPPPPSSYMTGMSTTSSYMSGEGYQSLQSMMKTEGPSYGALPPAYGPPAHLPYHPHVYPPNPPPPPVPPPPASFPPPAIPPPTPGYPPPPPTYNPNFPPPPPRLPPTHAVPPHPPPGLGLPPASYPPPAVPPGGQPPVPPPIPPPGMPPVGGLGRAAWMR

| Structure (SMILES) | IC50 [1, 4] | DC50 [2] | (IC50 CDK12 high ATP) to (Degradation DC50 CDK12) ratio [2] | IC50 [3] | IC50 [1] |
| --- | --- | --- | --- | --- | --- |
| Fc1c(Cl)ccc2[nH]c(CNc3nc(N4CC5CCC(C4)N5)nc4c(Br)cnn34)nc12 [Example 380, 8-bromo-N-[(5-chloro-4-fluoro-1H-benzimidazol-2-yl)methyl]-2-(3,8-diazabicyclo[3.2.1]octan-3-yl)pyrazolo[1,5-a][1,3,5]triazin-4-amine] | 5.93 µM | 2.32 nM | 438 | 9.26 µM |  |
| FC(F)(F)Oc1cccc2[nH]c(CNc3nc(N4CCOCC4)nc4c(Br)cnn34)nc12 [Example 375, 8-bromo-2-(morpholin-4-yl)-N-{[4-(trifluoromethoxy)-1H-benzimidazol-2-yl]methyl}pyrazolo[1,5-a][1,3,5]triazin-4-amine] | 14.5 µM | 58.1 nM | 79 | 11.9 µM |  |
| Fc1cc2nc(CNc3nc(N4CC5CCC(C4)N5)nc4c(Br)cnn34)[nH]c2cc1Cl [Example 348, 8-bromo-N-[(6-chloro-5-fluoro-1H-benzimidazol-2-yl)methyl]-2-(3,8-diazabicyclo[3.2.1]octan-3-yl)pyrazolo[1,5-a][1,3,5]triazin-4-amine] |  | 5.3 nM | 546 | 13.2 µM | 14 µM |
| Cc1cc2nc(CNc3nc(N(C)CC(C)(C)O)nc4c(Br)cnn34)[nH]c2cc1C [Example 343, 1-[(8-bromo-4-{[(5,6-dimethyl-1H-benzimidazol-2-yl)methyl]amino}pyrazolo[1,5-a][1,3,5]triazin-2-yl)(methyl)amino]-2-methylpropan-2-ol] | 4.27 µM | 3.56 nM | 53 | 1.19 µM |  |
| Fc1c(Cl)ccc2[nH]c(CNc3nc(N4CCOCC4)nc4c(C5CC5)cnn34)nc12 [Example 370, N-[(5-chloro-4-fluoro-1H-benzimidazol-2-yl)methyl]-8-cyclopropyl-2-(morpholin-4-yl)pyrazolo[1,5-a][1,3,5]triazin-4-amine] | > 20 µM | 2.19 nM | 77 | > 20 µM |  |
| Cc1cc2nc(CNc3nc(N4CC5CCC(C4)N5)nc4c(C5CC5)cnn34)[nH]c2cc1C [Example 326, 8-cyclopropyl-2-(3,8-diazabicyclo[3.2.1]octan-3-yl)-N-[(5,6-dimethyl-1H-benzimidazol-2-yl)methyl]pyrazolo[1,5-a][1,5]triazin-4-amine] | 17 µM | 4.77 nM | 198 | 4.14 µM |  |
| CN(CC(C)(C)O)c1nc(NCc2nc3c(F)c(Cl)ccc3[nH]2)n2ncc(C3CC3)c2n1 [Example 387, 1-[(4-{[(5-chloro-4-fluoro-1H-benzimidazol-2-yl)methyl]amino}-8-cyclopropylpyrazolo[1,5-a][1,3,5]triazin-2-yl)(methyl)amino]-2-methylpropan-2-ol] | 5.93 µM | 3.83 nM | 61 | 5.35 µM |  |
| FC(F)(F)Oc1ccc2[nH]c(CNc3nc(N4C[C@H]5CC[C@@H](C4)N5)nc4c(Br)cnn34)nc2c1 [Example 382, 8-bromo-2-[(1R,5S)-3,8-diazabicyclo[3.2.1]octan-3-yl]-N-{[5-(trifluoromethoxy)-1H-benzimidazol-2-yl]methyl}pyrazolo[1,5-a][1,3,5]triazin-4-amine] | > 20 µM | 79.7 nM | 10 | 14.2 µM |  |
| Fc1cccc2[nH]c(CNc3nc(N4CC5CCC(C4)N5)nc4c(Cl)cnn34)nc12 [Example 363, 8-chloro-2-(3,8-diazabicyclo[3.2.1]octan-3-yl)-N-[(4-fluoro-1H-benzimidazol-2-yl)methyl]pyrazolo[1,5-a][1,3,5]triazin-4-amine] | > 20 µM | 11.9 nM | 279 | 8.61 µM |  |
| CC[C@H](CO)Nc1nc(NCc2nc3ccccc3[nH]2)n2ncc(Br)c2n1 [Example 368, (2R)-2-[(4-{[(1H-benzimidazol-2-yl)methyl]amino}-8-bromopyrazolo[1,5-a][1,3,5]triazin-2-yl)amino]butan-1-ol] | > 20 µM | 9.39 nM | 516 | 0.885 µM |  |
| Fc1ccc(-c2nnc(CNc3nc(N4CCOCC4)nc4c(Br)cnn34)[nH]2)cc1 [Example 29, 8-bromo-N-{[5-(4-fluorophenyl)-4H-1,2,4-triazol-3-yl]methyl}-2-(morpholin-4-yl)pyrazolo[1,5-a][1,3,5]triazin-4-amine] | 2.4 µM | 11.8 nM | 310 | 3.08 µM |  |
| Brc1cnn2c(NCc3nc4ccccc4[nH]3)nc(N3CC4CCC(C3)O4)nc12 [Example 351, N-[(1H-benzimidazol-2-yl)methyl]-8-bromo-2-(8-oxa-3-azabicyclo[3.2.1]octan-3-yl)pyrazolo[1,5-a][1,3,5]triazin-4-amine] | > 20 µM | 24 nM | 390 | 7.39 µM |  |
| Cc1cc2nc(CNc3nc(N4CCOCC4)nc4c(C5CC5)cnn34)[nH]c2cc1C [Example 320, 8-cyclopropyl-N-[(5,6-dimethyl-1H-benzimidazol-2-yl)methyl]-2-(morpholin-4-yl)pyrazolo[1,5-a][1,3,5]triazin-4-amine] | > 20 µM | 4.28 nM | 130 | 4.71 µM |  |

The next lines start with results.

| IC50 [1, 4] | DC50 [2] | (IC50 CDK12 high ATP) to (Degradation DC50 CDK12) ratio [2] | IC50 [3] | Structure (SMILES) | IC50 [1] |
| --- | --- | --- | --- | --- | --- |
| 13.8 µM | 6.4 nM | 224 | 4.34 µM | Fc1cccc2[nH]c(CNc3nc(N4CCOCC4)nc4c(Cl)cnn34)nc12 [Example 361, 8-chloro-N-[(4-fluoro-1H-benzimidazol-2-yl)methyl]-2-(morpholin-4-yl)pyrazolo[1,5-a][1,3,5]triazin-4-amine] |  |
| > 20 µM | 2.35 nM | 5220 | > 20 µM | CN1CCN(c2nc(NCc3nc4cc(F)c(F)cc4[nH]3)n3ncc(Br)c3n2)CC1 [Example 346, 8-bromo-N-[(5,6-difluoro-1H-benzimidazol-2-yl)methyl]-2-(4-methylpiperazin-1-yl)pyrazolo[1,5-a][1,3,5]triazin-4-amine] |  |
| > 20 µM | 6.69 nM | 1251 | 12.4 µM | CN1CCN(c2nc(NCc3nc4cc(C(F)(F)F)ccc4[nH]3)n3ncc(Br)c3n2)CC1 [Example 344, 8-bromo-2-(4-methylpiperazin-1-yl)-N-{[5-(trifluoromethyl)-1H-benzimidazol-2-yl]methyl}pyrazolo[1,5-a][1,3,5]triazin-4-amine] |  |
| > 20 µM | 2.89 nM | 1601 | 13.8 µM | CN1CCN(c2nc(NCc3nc4cc(Cl)c(Cl)cc4[nH]3)n3ncc(Br)c3n2)CC1 [Example 330, 8-bromo-N-[(5,6-dichloro-1H-benzimidazol-2-yl)methyl]-2-(4-methylpiperazin-1-yl)pyrazolo[1,5-a][1,3,5]triazin-4-amine] |  |
| > 20 µM | 1.85 nM | 4722 | 17.8 µM | CN1CCN(c2nc(NCc3nc4cc(F)c(Cl)cc4[nH]3)n3ncc(Br)c3n2)CC1 [Example 337, 8-bromo-N-[(6-chloro-5-fluoro-1H-benzimidazol-2-yl)methyl]-2-(4-methylpiperazin-1-yl)pyrazolo[1,5-a][1,3,5]triazin-4-amine] |  |
| 8.3 µM | 0.894 nM | 1320 | 6.57 µM | CN(CC(C)(C)O)c1nc(NCc2nc3cc(F)c(Cl)cc3[nH]2)n2ncc(Br)c2n1 [Example 338, 1-[(8-bromo-4-{[(6-chloro-5-fluoro-1H-benzimidazol-2-yl)methyl]amino}pyrazolo[1,5-a][1,3,5]triazin-2-yl)(methyl)amino]-2-methylpropan-2-ol] |  |
| 17.4 µM | 3.55 nM | 624 | 9.36 µM | Fc1cc2nc(CNc3nc(N4CCOCC4)nc4c(Br)cnn34)[nH]c2cc1F [Example 341, 8-bromo-N-[(5,6-difluoro-1H-benzimidazol-2-yl)methyl]-2-(morpholin-4-yl)pyrazolo[1,5-a][1,3,5]triazin-4-amine] |  |
| 10.4 µM | 2.01 nM | 1086 | 9.08 µM | CN(CC(C)(C)O)c1nc(NCc2nc3cc(F)c(F)cc3[nH]2)n2ncc(Br)c2n1 [Example 347] |  |

Reference: patent publication US20230117034A1, “PYRAZOLOTRIAZINES” (Bayer Aktiengesellschaft, priority 2019, published 2023)
